Assays:
[1] = system: N. parvum isolate Bourgogne S-116; assay: Mycelial growth of N. parvum on supplemented PDA medium (Example 1); type: cell-based, Neofusicoccum parvum; details: after 4 days, versus control (100%)
B. cinerea B0510 = assay: Mycelial growth of B. cinerea on supplemented PDA medium (Example 2); type: cell-based, Botrytis cinerea; details: after 8 days, versus control (100%)
[2] = system: N. parvum isolate Bourgogne S-116; parameters: species or system V. vinifera L. cv. Chardonnay; details: in vivo
[3] = system: Calli of V. vinifera cv. Chardonnay; assay: Phytotoxicity on grapevine cell clusters (calli) (Example 4); type: cell-based, V. vinifera L. cv. Chardonnay; details: for appearance and color of the calli: MPM1 medium supplemented with 5 or 10 mM
Procedure: Calli (or undifferentiated cell clusters) of V. vinifera cv. Chardonnay are obtained from anthers as described in Mauro et al. (1986) and in Bertsch et al. (2005).
All the calli are inoculated on fresh solid MPM1 medium (Perrin et al. 2004) every 3 weeks and incubated at 25±0.5° C. in the dark with a relative humidity of 70±10%.
This experiment was repeated three times. For each condition, 15 white-yellow calli, with a diameter of 10±2 mm, were used.
Calli growth in each condition tested is evaluated by weighing each day for 5 days. Duncan's statistical test (with p≦0.05) was applied to the means and standard deviations of the results thus obtained. In addition to weighing, we visually evaluate the appearance and color of the calli according to their culture medium for 2 months.

| Compound | inhibition of the growth of the fungus on the culture medium [1] | inhibition of the growth of the fungus on the culture medium (B. cinerea B0510) | reduction in the surface area of the necrotic lesions [2] [%] | appearance and color of the calli [3] | growth of the calli (weighing) ([3]; supplemented MPM1 medium, 5 days of culture) | inhibition of the development of necrosis on the inoculated internodes [2] |
| --- | --- | --- | --- | --- | --- | --- |
| [O-2].[O-2].[O-2].[Sb+3].[Sb+3] [antimony oxide] | do not significantly inhibit the growth of the fungus | do not significantly inhibit the growth of the fungus |  |  |  |  |
| O=C([O-])CC(O)(CC(=O)[O-])C(=O)[O-].[Bi+3] [bismuth citrate] | do not significantly inhibit the growth of the fungus | do not significantly inhibit the growth of the fungus |  |  |  |  |
| [Bi+3].[Bi+3].[O-2].[O-2].[O-2] [bismuth oxide] | do not significantly inhibit the growth of the fungus | do not significantly inhibit the growth of the fungus | 5 | no change |  |  |
| O=C1[O][Bi]([OH])[O]c2ccccc21 [bismuth subsalicylate] |  |  |  | light grayish coloring at the periphery of the calli but no necrosis | no impact in terms of growth, multiplication or necrotic appearance |  |
| O=C(O)c1ccccc1O [salicylic acid] |  |  |  | light grayish coloring at the periphery of the calli but no necrosis |  | does not significantly inhibit the development of necrosis |

Source: US20170311603A1 (priority 2014, published 2017)
